According to ChEMBL document CHEMBL5380791, “Modular Biomimetic Strategy Enabled Discovery of Simplified Pseudo-Natural Macrocyclic P-Glycoprotein Inhibitors Capable of Overcoming Multidrug Resistance” (J Med Chem, 2023):
Calls of active or inactive are those of the source. No cut-off for these calls is given here.

Key:
KBv200 [1] = test: Reversal of vinorelbine resistance in human KBv200 cells assessed as reduction in cell viability incubated for 72 hrs in presence of vinorelbine (reference value: 224 to 228.30 nM); format: functional, cell-based; details: KBv200, 72 h, read-out: IC50
KBv200 [2] = test: Reversal fold, ratio of vinorelbine IC50 for cytotoxicity against human KBv200 cells over test compound IC50 for reversal of vinorelbine resistance in human KBv200 cells; format: functional
KBv200 [3] = test: Reversal of paclitaxel resistance in human KBv200 cells assessed as reduction in cell viability incubated for 72 hrs in presence of paclitaxel (reference value: 392.9+/-196.5 nM); format: functional, cell-based; details: KBv200, 72 h
KBv200 [4] = test: Reversal of adriamycin resistance in human KBv200 cells assessed as reduction in cell viability incubated for 72 hrs in presence of adriamycin (reference value: 1291.2+/-308.9 nM); format: functional, cell-based; details: KBv200, 72 h
KB = test: Reversal of vinorelbine resistance in human KB cells assessed as reduction in cell viability incubated for 72 hrs in presence of vinorelbine (reference value: 7.4+/-2.2 nM); format: functional, cell-based
K562/Adr = test: Reversal of vinorelbine resistance in human K562/Adr cells assessed as reduction in cell viability incubated for 72 hrs in presence of vinorelbine (reference value: 7320.6+/-2115.2 nM); format: functional, cell-based
K562 = test: Reversal of vinorelbine resistance in human K562 cells assessed as reduction in cell viability incubated for 72 hrs in presence of vinorelbine (reference value: 5.9+/-0.2 nM); format: functional, cell-based; details: K562, 72 h
NCI/ADR-RES = test: Reversal of vinorelbine resistance in human NCI/ADR-RES cells assessed as reduction in cell viability incubated for 72 hrs in presence of vinorelbine (reference value: 6125.7+/-3267.7 nM); format: functional, cell-based
OVCAR-8 = test: Reversal of vinorelbine resistance in human OVCAR-8 cells assessed as reduction in cell viability incubated for 72 hrs in presence of vinorelbine (reference value: 16.2+/-4.7 nM); format: functional, cell-based; details: OVCAR-8, 72 h
[5] = Cytotoxicity against human HEK293T cells assessed as reduction in cell viability incubated for 48 hrs by CCK-8 assay; format: toxicity, cell-based, HEK-293T
[6] = Cytotoxicity against human L02 cells assessed as reduction in cell viability incubated for 48 hrs by CCK-8 assay; format: toxicity, cell-based
[7] = Half life in CD-1 mouse at 30 mg/kg, po; format: ADME, organism-based; details: in vivo
[8] = Tmax in CD-1 mouse at 30 mg/kg, po; format: ADME, organism-based; details: in vivo
[9] = Cmax in CD-1 mouse at 30 mg/kg, po; format: ADME, organism-based; design: dose 30 mg/kg, route po; details: in vivo
[10] = AUClast in CD-1 mouse at 30 mg/kg, po; format: ADME, organism-based; design: dose 30 mg/kg, route po; details: in vivo
[11] = AUCinf in CD-1 mouse at 30 mg/kg, po; format: ADME, organism-based; design: dose 30 mg/kg, route po; details: in vivo
[12] = Clearance in CD-1 mouse at 3 mg/kg, iv; format: ADME, organism-based; details: in vivo
[13] = Oral bioavailability in CD-1 mouse at 30 mg/kg; format: ADME, organism-based; details: in vivo
[14] = Half life in CD-1 mouse at 25 mg/kg, ip; format: ADME, organism-based; details: in vivo
[15] = Half life in CD-1 mouse at 3 mg/kg, iv; format: ADME, organism-based; details: in vivo
[16] = Tmax in CD-1 mouse at 25 mg/kg, ip; format: ADME, organism-based; details: in vivo
[17] = Cmax in CD-1 mouse at 25 mg/kg, ip; format: ADME, organism-based; design: dose 25 mg/kg, route ip; details: in vivo
[18] = AUClast in CD-1 mouse at 25 mg/kg, ip; format: ADME, organism-based; design: dose 25 mg/kg, route ip; details: in vivo
[19] = AUClast in CD-1 mouse at 3 mg/kg, iv; format: ADME, organism-based; design: dose 3 mg/kg, route iv; details: in vivo
[20] = AUCinf in CD-1 mouse at 25 mg/kg, ip; format: ADME, organism-based; design: dose 25 mg/kg, route ip; details: in vivo
[21] = AUCinf in CD-1 mouse at 3 mg/kg, iv; format: ADME, organism-based; design: dose 3 mg/kg, route iv; details: in vivo
[22] = Bioavailability in CD-1 mouse at 25 mg/kg, ip; format: ADME, organism-based; details: in vivo
KBv200 [23] = test: Antitumor activity against human KBv200 cells xenografted in Balb/cA nude mouse assessed as mean tumor volume at 75 mg/kg, ip administered as single dose and measured on day 0; format: functional
KBv200 [24] = test: Antitumor activity against human KBv200 cells xenografted in Balb/cA nude mouse assessed as mean tumor volume at 75 mg/kg, ip qd administered for 13 days; format: functional; details: time 13 day
KBv200 [25] = test: Antitumor activity against human KBv200 cells xenografted in Balb/cA nude mouse assessed as T/C ratio at 75 mg/kg, ip qd administered for 13 days; format: functional; details: time 13 day
KBv200 [26] = test: Antitumor activity against human KBv200 cells xenografted in Balb/cA nude mouse assessed as tumor growth inhibition at 75 mg/kg, ip qd administered for 13 days; format: functional; details: KBv200, 312 h, time 13 day
[27] = Toxicity in Balb/cA nude mouse xenografted with human KBv200 cells assessed as changes in body weight at 75 mg/kg, ip qd administered for 13 days; format: organism-based; details: in vivo, 312 h, time 13 day
[28] = Toxicity in Balb/cA nude mouse xenografted with human KBv200 cells assessed as mortality at 75 mg/kg, ip qd administered for 13 days; format: organism-based; details: in vivo, 312 h, time 13 day
[29] = Toxicity in Balb/cA nude mouse xenografted with human KBv200 cells assessed as changes in body weight at 75 mg/kg, ip qd administered for 13 days in presence of vinorelbine; format: organism-based; details: in vivo, 312 h, time 13 day
[30] = Toxicity in Balb/cA nude mouse xenografted with human KBv200 cells assessed as mortality at 75 mg/kg, ip qd administered for 13 days in presence of vinorelbine; format: organism-based; details: in vivo, 312 h, time 13 day
KBv200 [31] = test: Antitumor activity against human KBv200 cells xenografted in Balb/cA nude mouse assessed as mean tumor volume at 75 mg/kg, ip administered as single dose and measured on day 0 in presence of vinorelbine; format: functional
KBv200 [32] = test: Antitumor activity against human KBv200 cells xenografted in Balb/cA nude mouse assessed as mean tumor volume at 75 mg/kg, ip qd administered for 13 days in presence of vinorelbine; format: functional; details: time 13 day
KBv200 [33] = test: Antitumor activity against human KBv200 cells xenografted in Balb/cA nude mouse assessed as T/C ratio at 75 mg/kg, ip qd administered for 13 days in presence of vinorelbine; format: functional; details: time 13 day
KBv200 [34] = test: Antitumor activity against human KBv200 cells xenografted in Balb/cA nude mouse assessed as tumor growth inhibition at 75 mg/kg, ip qd administered for 13 days in presence of vinorelbine; format: functional; details: KBv200, 312 h, time 13 day
KBv200 [35] = test: Downregulation of P-gp mRNA expression level in human KBV200 cells by qRT-PCR analysis; format: functional, cell-based
[36] = target: ATP-dependent translocase ABCB1 (Homo sapiens, UniProt P08183); test: Inhibition of P-gp in human KBv200 cells assessed as induction of conformation change by measuring increase in UIC-2 binding level at 50 uM incubated for 10 mins by UIC-2 reactivity shift assay; format: cell-based; details: kbv200, 10 min
Sequence of ATP-dependent translocase ABCB1 (P08183 whole entry): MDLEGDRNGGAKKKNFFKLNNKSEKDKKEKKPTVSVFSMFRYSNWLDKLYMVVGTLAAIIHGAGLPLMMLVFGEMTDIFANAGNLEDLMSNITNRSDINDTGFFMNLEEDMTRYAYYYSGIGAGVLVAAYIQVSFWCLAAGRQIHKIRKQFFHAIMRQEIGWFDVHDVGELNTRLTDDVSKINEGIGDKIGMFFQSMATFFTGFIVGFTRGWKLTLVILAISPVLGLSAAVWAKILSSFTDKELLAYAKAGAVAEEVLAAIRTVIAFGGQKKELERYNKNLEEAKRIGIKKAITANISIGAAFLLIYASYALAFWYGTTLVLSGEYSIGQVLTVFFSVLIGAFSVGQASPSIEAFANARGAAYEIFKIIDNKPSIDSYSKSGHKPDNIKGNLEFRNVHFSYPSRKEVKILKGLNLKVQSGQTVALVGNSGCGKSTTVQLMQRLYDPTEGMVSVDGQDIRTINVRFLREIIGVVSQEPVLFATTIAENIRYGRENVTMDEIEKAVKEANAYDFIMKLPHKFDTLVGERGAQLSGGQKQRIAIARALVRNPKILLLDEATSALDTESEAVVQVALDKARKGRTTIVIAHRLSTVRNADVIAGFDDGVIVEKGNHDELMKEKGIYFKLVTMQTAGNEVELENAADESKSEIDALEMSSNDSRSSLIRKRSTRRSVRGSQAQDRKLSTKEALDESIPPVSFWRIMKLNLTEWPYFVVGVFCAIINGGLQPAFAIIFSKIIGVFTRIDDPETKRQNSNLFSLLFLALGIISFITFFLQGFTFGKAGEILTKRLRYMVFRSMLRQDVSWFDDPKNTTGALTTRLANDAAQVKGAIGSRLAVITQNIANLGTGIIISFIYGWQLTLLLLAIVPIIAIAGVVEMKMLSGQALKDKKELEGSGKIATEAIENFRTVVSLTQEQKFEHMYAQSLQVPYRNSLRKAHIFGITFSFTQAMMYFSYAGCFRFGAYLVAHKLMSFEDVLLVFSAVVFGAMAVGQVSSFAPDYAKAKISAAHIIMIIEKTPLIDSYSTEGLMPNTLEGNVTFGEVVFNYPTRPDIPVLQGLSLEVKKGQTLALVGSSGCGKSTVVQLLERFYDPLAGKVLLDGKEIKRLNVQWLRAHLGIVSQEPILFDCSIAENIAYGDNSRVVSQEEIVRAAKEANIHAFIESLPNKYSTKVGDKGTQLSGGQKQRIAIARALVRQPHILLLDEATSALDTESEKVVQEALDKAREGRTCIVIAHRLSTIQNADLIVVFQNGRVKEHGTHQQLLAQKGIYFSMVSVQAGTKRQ

KBv200 [37] = test: Induction of apoptosis in human KBv200 cells assessed as increase in cleaved PARP level at 5 uM incubated for 24 hrs in presence of vinorelbine by Western blotting analysis; format: functional, cell-based
KBv200 [38] = test: Induction of apoptosis in human KBv200 cells assessed as increase in cleaved caspase 3 level at 5 uM incubated for 24 hrs in presence of vinorelbine by Western blotting analysis; format: functional, cell-based
KBv200 [39] = test: Induction of apoptosis in human KBv200 cells assessed as increase in cleaved caspase 9 level at 5 uM incubated for 24 hrs in presence of vinorelbine by Western blotting analysis; format: functional, cell-based
KBv200 [40] = test: Induction of apoptosis in human KBv200 cells assessed as increase in cleaved PARP level at 5 uM incubated for 24 hrs by Western blotting analysis; format: functional, cell-based
KBv200 [41] = test: Induction of apoptosis in human KBv200 cells assessed as increase in cleaved caspase 3 level at 5 uM incubated for 24 hrs by Western blotting analysis; format: functional, cell-based
KBv200 [42] = test: Induction of apoptosis in human KBv200 cells assessed as increase in cleaved caspase 9 level at 5 uM incubated for 24 hrs by Western blotting analysis; format: functional, cell-based

CC(C)[C@H]1NC(=O)/C(c2ccccc2)=C\C=C(\c2ccccc2)CNC(=O)CCCCCCCCCCCNC1=O
IC50 (KBv200 [1]): 0.74 nM
Ratio IC50 (KBv200 [2]): 386
IC50 (KBv200 [3]): 8 nM
IC50 (KBv200 [4]): 107 nM
IC50 (KB): 2.2 nM
IC50 (K562/Adr): 1210 nM
IC50 (K562): 1.4 nM
IC50 (NCI/ADR-RES): 619 nM
IC50 (OVCAR-8): 6.8 nM
IC50 at 48 h [5]: > 100000 nM
IC50 at 48 h [6]: > 100000 nM
half-life [7]: 1.24 h
Tmax [8]: 0.25 h
Cmax [9]: 1380 ng/mL
AUC(0-t) [10]: 2190 ng·h/mL
AUC(0-inf) [11]: 2200 ng·h/mL
clearance [12]: 58.2 mL/min/kg
bioavailability [13]: 24.7%
half-life [14]: 11.2 h
half-life [15]: 1.23 h
Tmax [16]: 7.2 min
Cmax [17]: 2390 ng/mL
AUC(0-t) [18]: 4400 ng·h/mL
AUC(0-t) [19]: 887 ng·h/mL
AUC(0-inf) [20]: 5100 ng·h/mL
AUC(0-inf) [21]: 888 ng·h/mL
bioavailability [22]: 59.5%
Activity (KBv200 [23]): 121 mm3
Activity (KBv200 [24]): 2318.6 mm3
T/C (KBv200 [25]): 113%
inhibition in vivo at 75 mg/kg (KBv200 [26]): -13%
Activity [27]: Non-Toxic
Activity [28]: Non-Toxic
Activity [29]: Non-Toxic
Activity [30]: Non-Toxic
Activity (KBv200 [31]): 121.5 mm3
Activity (KBv200 [32]): 1132.6 mm3
T/C (KBv200 [33]): 52%
inhibition in vivo at 75 mg/kg (KBv200 [34]): 48%
Activity (KBv200 [35]): inactive
Activity [36]: Active
Activity (KBv200 [37]): Active
Activity (KBv200 [38]): Active
Activity (KBv200 [39]): Active
Activity (KBv200 [40]): inactive
Activity (KBv200 [41]): inactive
Activity (KBv200 [42]): inactive
